Structures can show the parent of a compound that is named as a salt.
system: aconitin-induced atrial fibrillation; test: Aconitin-induced atrial fibrillation model in anaesthetized dogs (Pharmacological Trial 1); format: in vivo, dog; details: Canis lupus familiaris; intravenous, anesthetized dogs, as hydrochloride; read-out: minimum dose level which suppresses atrial fibrillation
Description: Pharmacological Trial 1: Evaluation of effectiveness in aconitin-induced atrial fibrillation model (dogs) Evaluation was performed according to K. Hashimoto (Jpn. J. Pharmacol., Vol. 46, 349-358, 1988) as follows:
Method: Dog was anesthetized and thoracotomy was made. Persistent atrial fibrillation was induced by placing a piece of filter paper impregnated with 0.5% aconitin solution (20 to 30 μl) on the right atrium. […] Onset and suppression of atrial fibrillation were monitored electrocardiographically by placing Ag--AgCl bipolar electrode on the right atrial auricle.
Results: Each compound in Examples 1 to 87 suppressed atrial fibrillation at least following dose level (all compounds were used in the form of hydrochloride).

First: CCOCCNCCOc1ccc(NC(=O)c2ccccc2NS(C)(=O)=O)cc1 [Example 47, 4'-[2-[(2-Ethoxyethyl)amino]ethoxy]-2-(methanesulfonamido)benzanilide]
Second: COCCCNCCOc1ccc(NC(=O)c2ccccc2NS(C)(=O)=O)cc1.Cl [Example 49, 2-Methanesulfonamido-4'-[2-[(3-methoxypropyl)amino]ethoxy]benzanilide Hydrochloride]
The minimal effective dose of the first is 3.3-fold lower: 3 mg/kg for the first, 10 mg/kg for the second.

`COCCCNCCOc1ccc(NC(=O)c2c(OC)cccc2OC)cc1` [Example 48, 2,6-Dimethoxy-4'-[2-[(3-methoxypropyl)amino]ethoxy]benzanilide] and `COc1cccc(OC)c1C(=O)Nc1ccc(OCCNC2CC2)cc1` [Example 50, 4'-[2-(Cyclopropylamino)ethoxy]-2,6-dimethoxybenzanilide] are the same in minimal effective dose: 3 mg/kg for the first, 3 mg/kg for the second.

`Cl.O=C(Nc1ccc(OCCNC2CC2)cc1)C1CCOC1` (centres unmarked) [Example 51, 4'-[2-(Cyclopropylamino)ethoxy]-2,3,4,5-tetrahydro-3-furanilide Hydrochloride] and `O=C(Nc1ccc(OCCNC2CC2)cc1)C1CCOCC1` [Example 52, 4'-[2-(Cyclopropylamino)ethoxy]-3,4,5,6-tetrahydro-2H-pyran-4-carboxanilideHydrochloride] are the same in minimal effective dose: 3 mg/kg for the first, 3 mg/kg for the second.

`COCCC(=O)Nc1ccc(OCCNC2CC2)cc1` [Example 53, 4'-[2-(Cyclopropylamino)ethoxy]-3-methoxypropananilide] and `COCCC(=O)Nc1ccc(OCCNC2CCCC2)c(OC)c1` [Example 61, 4'-[2-(Cyclopentylamino)ethoxy]-3'-methoxy-3-methoxypropananilide] are the same in minimal effective dose: 10 mg/kg for the first, 10 mg/kg for the second.

`CS(=O)(=O)Nc1ccccc1C(=O)Nc1ccc(OCCNC2CCCC2)cc1` [Example 54] and `CS(=O)(=O)Nc1cc(NC(=O)c2ccccc2NS(C)(=O)=O)ccc1OCCNC1CCCC1.Cl` [Example 68, 4'-[2-(Cyclopentylamino)ethoxy]-2-methanesulfonamido-3'-(methanesulfonamido)benzanilide Hydrochloride] are the same in minimal effective dose: 10 mg/kg for the first, 10 mg/kg for the second.

Compared with `COc1cccc(OC)c1C(=O)Nc1ccc(OCCNC2CCCCC2)cc1` [Example 55, 4'-[2-(Cyclohexylamino)ethoxy]-2,6-dimethoxybenzanilide], `COc1cc(NC(=O)c2c(OC)cccc2OC)ccc1OCCNC1CCCC1.Cl` [Example 62, 4'-[2-(Cyclopentylamino)ethoxy]-2,6-dimethoxy-3'-methoxybenzanilide Hydrochloride] is 33-fold higher in minimal effective dose: 0.3 mg/kg for the first, 10 mg/kg for the second.

`CCNCCOc1ccc(NC(=O)c2ccoc2)cc1OC.Cl` [Example 56, 4'-[2-(Ethylamino)ethoxy]-3'-methoxy-3-furanilide Hydrochloride] and `COc1cc(NC(=O)c2ccoc2)ccc1OCCNC(C)C.Cl` [Example 60, 4'-[2-(Isopropylamino)ethoxy]-3'-methoxy-3-furanilide Hydrochloride] are the same in minimal effective dose: 10 mg/kg for the first, 10 mg/kg for the second.

Going from `COCCC(=O)Nc1ccc(OCCNC(C)C)c(OC)c1` [Example 57, 4'-[2-(Isopropylamino)ethoxy]-3-methoxy-3-methoxypropananilide] to `COCCC(=O)Nc1ccc(OCCNC(C)C)c(C)c1.Cl` [Example 78, 4'-[2-(Isopropylamino)ethoxy]-3-methoxy-3'-methylpropananilide Hydrochloride], the minimal effective dose falls from 10 mg/kg to 3 mg/kg (3.3-fold).

`COc1cc(NC(=O)c2ccccc2NS(C)(=O)=O)ccc1OCCNC(C)C` [Example 58, 4'-[2-(Isopropylamino)ethoxy]-2-meth anesulfonamido-3'-methoxybenzanilide] and `Cc1cc(NC(=O)c2ccccc2NS(C)(=O)=O)ccc1OCCNC(C)C.Cl` [Example 75, 4'-[2-(Isopropylamino)ethoxy]-2-methanesulfonamido-3'-methylbenzanilide Hydrochloride] are the same in minimal effective dose: 10 mg/kg for the first, 10 mg/kg for the second.

Compared with `COc1cc(NC(=O)c2ccccc2S(C)(=O)=O)ccc1OCCNC(C)C.Cl` [Example 59, 4'-[2-(Isopropylamino)ethoxy]-2-methanesulfonyl-3'-methoxybenzanilide Hydrochloride], `Cc1cc(NC(=O)c2ccccc2S(C)(=O)=O)ccc1OCCNC(C)C.Cl` [Example 76, 4'-[2-(Isopropylamino)ethoxy]-2-methanesulfonyl-3'-methylbenzanilide Hydrochloride] is 3.3-fold lower in minimal effective dose: 10 mg/kg for the first, 3 mg/kg for the second.

First: CCN(CC)CCOc1ccc(NC(=O)c2c(OC)cccc2OC)cc1OC [Example 63, 4'-[2-(Diethylamino)ethoxy]-2,6-dimethoxy-3-methoxybenzanilide]
Second: CCN(CC)CCOc1ccc(NC(=O)c2c(OC)cccc2OC)c(C)c1 [Example 73, 4'-[2-(Diethylamino)ethoxy]-2-dimethoxy-2'-methyl Benzanilide]
The minimal effective dose of the first is 3.3-fold higher: 10 mg/kg for the first, 3 mg/kg for the second.

`COc1cccc(OC)c1C(=O)Nc1ccc(OCCNC(C)C)cc1NS(C)(=O)=O` [Example 64, 4'-[2-(Isopropylamino)ethoxy]-2'-methanesulfonamido-2,6-dimethoxybenzaniideHydrochloride] and `COc1cccc(OC)c1C(=O)Nc1ccc(OCCNC(C)C)c(NS(C)(=O)=O)c1` [Example 65, 4'-[2-(Isopropylamino)ethoxy]-3'-methanesulfonamido-2,6-dimethoxybenzanilide] are the same in minimal effective dose: 10 mg/kg for the first, 10 mg/kg for the second.

`CC(C)NCCOc1ccc(NC(=O)c2ccccc2NS(C)(=O)=O)cc1NS(C)(=O)=O.Cl` [Example 66, 4'-[2-(Isopropylamino)ethoxy]-2-methanesulfonamido-3'-(methanesulfonamido)benzanilide Hydrochloride] and `Cc1cc(OCCNC(C)C)ccc1NC(=O)c1ccccc1NS(C)(=O)=O.Cl` [Example 70, 4'-[2-(Isopropylamino)ethoxy]-2-methanesulfonamido-2'-methylbenzanilide Hydrochloride] are the same in minimal effective dose: 3 mg/kg for the first, 3 mg/kg for the second.

`CC(C)NCCOc1ccc(NC(=O)c2ccoc2)cc1NS(C)(=O)=O.Cl` [Example 67, 4'-[2-(Isopropylamino)ethoxy]-3'-methanesulfonamido-3-furanilide Hydrochloride] and `Cc1cc(NC(=O)c2ccoc2)ccc1OCCNC(C)C.Cl` [Example 79, 4'-[2-(Isopropylamino)ethoxy]-3'-methyl-3-furanilide Hydrochloride] are the same in minimal effective dose: 10 mg/kg for the first, 10 mg/kg for the second.

`COc1cccc(OC)c1C(=O)Nc1ccc(OCCNC(C)C)cc1C.Cl` [Example 69, 4'-[2-(Isopropylamino)ethoxy]-2,6-dimethoxy-2'-methyl benzanilide Hydrochloride] and `COc1cccc(OC)c1C(=O)Nc1ccc(OCCNC(C)C)c(C)c1.Cl` [Example 74, 4'-[2-(Isopropylamino)ethoxy]-2,6-dimethoxy-3'-methylbenzanilide Hydrochloride] are the same in minimal effective dose: 3 mg/kg for the first, 3 mg/kg for the second.

`COCCC(=O)Nc1ccc(OCCNC(C)C)cc1C` [Example 71, 4'-[2-(Isopropylamino)ethoxy]-3-methoxy-2'-methylpropananilide] and `COCCC(=O)Nc1cc(C)c(OCCNC(C)C)c(C)c1.Cl` [Example 86, 4'-[2-(Isopropylamino)ethoxy]-3-methoxy-3',5'-dimethyl propananilide Hydrochloride] are the same in minimal effective dose: 3 mg/kg for the first, 3 mg/kg for the second.

Going from `Cc1cc(OCCNC(C)C)ccc1NC(=O)c1ccoc1.Cl` [Example 72, 4'-[2-(Isopropylamino)ethoxy]-2'-methyl-3-furanilide Hydrochloride] to `Cc1cc(NC(=O)c2ccoc2)cc(C)c1OCCNC(C)C.Cl` [Example 87, 4'-[2-(Isopropylamino)ethoxy]-3',5'-dimethyl-3-furanilide Hydrochloride], the minimal effective dose rises from 3 mg/kg to 10 mg/kg (3.3-fold).

`Cc1cc(NC(=O)C2CCOCC2)ccc1OCCNC(C)C.Cl` [Example 77, 4'-[2-(Isopropylamino)ethoxy]-3'-methyl-3,4,5,6-tetrahydro-2H-pyran-4-carboxanilide Hydrochloride] and `Cc1cc(NC(=O)C2CCOCC2)cc(C)c1OCCNC(C)C.Cl` [Example 85, 4'-[2-(Isopropylamino)ethoxy]-3',5'-dimethyl-3,4,5,6-tetrahydro-2H-pyran-4-carboxanilide Hydrochloride] are the same in minimal effective dose: 10 mg/kg for the first, 10 mg/kg for the second.

`CCNCCOc1c(C)cc(NC(=O)c2ccccc2NS(C)(=O)=O)cc1C.Cl` [Example 80, 4'-[2-(Ethylamino)ethoxy]-2-methanesulfonamido-3',5'-dimethylbenzanilide Hydrochloride] and `CCNCCOc1c(C)cc(NC(=O)c2ccccc2S(C)(=O)=O)cc1C.Cl` [Example 81, 4'-[2-(Ethylamino)ethoxy]-2-methanesulfonyl-3',5'-dimethylbenzanilide Hydrochloride] are the same in minimal effective dose: 3 mg/kg for the first, 3 mg/kg for the second.

`COc1cccc(OC)c1C(=O)Nc1cc(C)c(OCCNC(C)C)c(C)c1.Cl` [Example 82, 4'-[2-(Isopropylamino)ethoxy]-2,6-dimethoxy-3',5'-dimethyl benzanilide Hydrochloride] and `Cc1cc(NC(=O)c2ccccc2S(C)(=O)=O)cc(C)c1OCCNC(C)C.Cl` [Example 83, 4'-[2-(Isopropylamino)ethoxy]-2-methanesulfonyl-3',5'-dimethylbenzanilide Hydrochloride] are the same in minimal effective dose: 10 mg/kg for the first, 10 mg/kg for the second.

`Cc1cc(NC(=O)C2CCOC2)cc(C)c1OCCNC(C)C.Cl` (centres unmarked) [Example 84, 4'-[2-(Isopropylamino)ethoxy]-3',5'-dimethyl-2,3,4,5-tetrahydro-3-furanilide Hydrochloride] gave a minimal effective dose of 10 mg/kg.
